Data set [1] concerns BMMCs. The data set is described as follows: MTT assay, inhibition of the growth of BMMCs (cell toxicity). It counts as cell-based. To be noted: 10 μM. The protocol:
(§1) (1) Experimental Animal: a 6-week-old female Balb/C mouse without specific pathogens.
(§2) (2) Extraction Process: the mouse was sacrificed by cervical dislocation. After confirming the death of the mouse, it was immersed in alcohol for 3-5 minutes. The back skin of the mouse was cut with tweezers and scissors on a clean bench. The spleen was removed and placed in a filter. The filter was placed in a petri dish containing serum-free medium. The spleen was grounded into a cell suspension having a cell concentration of 2×10^6 cells/mL. […] of lectins was added, and cell suspension was then cultured in RPMI1640 medium for 5 days. The supernatant was collected. The femur bone of the mouse was removed, and joints of the bone was cut. The bone marrow was washed into a centrifuging tube by using serum-free medium. The bone marrow containing medium was then centrifuged, and the supernatant was discarded and the pellet was red bone marrow.
(§3) (3) Cell Culture: The cells were cultured for 4 weeks with RPMI1640, 10% Gibco FBS, 20% spleen supernatant, 1% AEPS, 1% MEM, and 1% double antibody.
(1) Preparation of MTT Solution: 5 mg/mL MTT solution was prepared by weighing an amount of MTT ((2-(4,5-dimethyl-2-thiazolyl)-3,5-diphenyl-2H-[…]) and dissolving MMT in PBS (solvent), and the solution was then filtered using a 0.22 μm microporous membrane. The solution was light yellow and stored at −20° C.
(2) Method: BMMCs were seeded in 96-well plates at a density of 2×10^5/mL at 100 μL per well, and the compounds of different concentrations were added. 100 μL culture medium and 100 μL PBS were used as blank control. After 7 hours, 20 μL MMT (5 mg/mL) was added to each well. The plates were then placed in an incubator (5% CO2, 37° C.) for 4 hours. After the reaction was complete, the supernatant was discarded, and 150 μL of DMSO was added to each well. After mixing, the absorbance (OD value) was measured at 490 nm using a microplate reader. Cell Viability=(ODcompounds−ODculture medium)/(ODPBS−ODculture medium)×100%

Data set [2] relates to Leukotriene C4 (LTC4) production in mouse bone marrow-derived mast cells (BMMCs). The data set is described as follows: Inhibition of LTC4 production/release by IgE/DNP-HSA-stimulated BMMCs (ELISA). It counts as cell-based. The conditions noted are these: 10 μM. The protocol:
as §1, §2, §3
Principle: This experiment is based on the competitive binding of LTC4 to the LTC4-acetylcholinesterase conjugate (LTC4 tracer) to determine the amount of […]. Because the concentration of the LTC4 tracer is constant and the concentration of LTC4 is varied, the amount of LTC4 tracer bound to the LTC4 antiserum is inversely proportional to the amount of LTC4. The antibody-LTC4 complex binds to the murine monoclonal anti-rabbit IgG, while the murine monoclonal anti-rabbit IgG has previously been conjugated to the kit. After the reaction system was stabilized, the unbound reagent was washed away. Ellman's reagent (a […]) was added. […] The color depth was measured by the spectrophotometric method, and is proportional to the amount of LTC4 tracer, which is inversely proportional to the amount of LTC4.
(a) Sample Preparation: culturing mature BMMCs, adding IgE overnight, washing with PBS three times, and then spreading in 96-well plates (1×10^6 cells/well). The test compound solutions were added to plates and the plates were incubated for 1-1.5 hours, stimulating with DNP-HSA for 15 min. The solutions were then centrifuged at 3000 rpm for 3 min at 4° C., and the supernatant was collected and diluted 5-fold with RPMI 1640 to obtain sample solution.
(b) ELISA Kit Reaction: Adding reagents according to the kit instructions, reacting at 4° C. for 18 h, and washing with washing buffer. 200 μL of Ellman's reagent was added to each well, reacting for 40 min.
(c) Measurement of Absorbance: The absorbance was measured at 405 nm.

As to `CC(=O)OCCCC(C)C1=C(C)CC2OC(=O)C3(CC(c4ccc(Cl)cc4)=NO3)C2C1=O` (centres unmarked) [Compound 4c], the “Cell Toxicity (%)” value in data set [1] amounted to 2.95%. In addition, the “Inhabitation Rate (%)” value in data set [2] is listed as 84.4%.
With `CC(=O)OCCCC(C)C1=C(C)CC2OC(=O)C3(CC(c4ccc(F)cc4)=NO3)C2C1O` (centres unmarked) [Compound 2b], the “Cell Toxicity (%)” value in data set [1] is recorded as 1.47%. Besides, in data set [2], the “Inhabitation Rate (%)” value is reported as 77.46%.
For `C=C1C(=O)OC2CC(C)=C(C(C)CCCOC(C)=O)C(OC(C)=O)C12` (centres unmarked) [OABL, 1,6-O,O-diacetylbritannilatone, reference compound], in that order: 3.46% and 53.24%.
For the molecule `CC(=O)OCCCC(C)C1=C(C)CC2OC(=O)C3(CC(c4ccc(C)cc4)=NO3)C2C1O` (centres unmarked) [Compound 2f], in data set [1], the “Cell Toxicity (%)” value is −1.06%. In addition, in data set [2], the “Inhabitation Rate (%)” value is given as −32.88%.
The like results for `CC(=O)OCCCC(C)C1=C(C)CC2OC(=O)C3(CC(c4ccccc4)=NO3)C2C1O` (centres unmarked) [Compound 2a] were, in that order, 5.98% and 69.36%.
With `CC(=O)OCCCC(C)C1=C(C)CC2OC(=O)C3(CC(c4ccc(O)cc4)=NO3)C2C1OC(C)=O` (centres unmarked) [Compound 3j], the “Cell Toxicity (%)” value in data set [1] came out at 21.95%. Besides, the “Inhabitation Rate (%)” value in data set [2] came out at 88.7%.
With `CC(=O)OCCCC(C)C1=C(C)CC2OC(=O)C3(CC(c4ccc(C)cc4)=NO3)C2C1OC(C)=O` (centres unmarked) [Compound 3f], the “Cell Toxicity (%)” value in data set [1] stood at 4.1%. The “Inhabitation Rate (%)” value in data set [2] was −23.48%.
For `CC(=O)OCCCC(C)C1=C(C)CC2OC(=O)C3(CC(c4ccc(C#N)cc4)=NO3)C2C1OC(C)=O` (centres unmarked) [Compound 3e], in that order: 0.25% and 93.95%.
For `CC(=O)OCCCC(C)C1=C(C)CC2OC(=O)C3(CC(c4ccncc4)=NO3)C2C1O` (centres unmarked) [Compound 2i], in that order: 4.26% and 84.84%.
Regarding `COc1ccc(C2=NOC3(C2)C(=O)OC2CC(C)=C(C(C)CCCOC(C)=O)C(OC(C)=O)C23)cc1` (centres unmarked) [Compound 3g], in data set [1], the “Cell Toxicity (%)” value came to 11.12%. In addition, the “Inhabitation Rate (%)” value in data set [2] is recorded as 93.19%.
Regarding `CC(=O)OCCCC(C)C1=C(C)CC2OC(=O)C3(CC(c4ccc(F)cc4)=NO3)C2C1OC(C)=O` (centres unmarked) [Compound 3b], the “Cell Toxicity (%)” value in data set [1] was −1.97%. For the same molecule, the “Inhabitation Rate (%)” value in data set [2] is 89.01%.
`CC(=O)OCCCC(C)C1=C(C)CC2OC(=O)C3(CC(c4ccncc4)=NO3)C2C1OC(C)=O` (centres unmarked) [Compound 3i]: the “Cell Toxicity (%)” value in data set [1] was determined as 9.58%. In data set [2], the “Inhabitation Rate (%)” value was 88.7%.
The like results for `CC(=O)OCCCC(C)C1=C(C)CC2OC(=O)C3(CC(c4ccc(O)cc4)=NO3)C2C1O` (centres unmarked) [Compound 2j] were, in that order, −0.9% and 74.36%.
The like results for `CC(=O)OCCCC(C)C1=C(C)CC2OC(=O)C3(CC(c4ccc(C#N)cc4)=NO3)C2C1O` (centres unmarked) [Compound 2e] were, in that order, −0.66% and 85.49%.
For `CC(=O)OCCCC(C)C1=C(C)CC2OC(=O)C3(CC(c4ccc([N+](=O)[O-])cc4)=NO3)C2C1OC(C)=O` (centres unmarked) [Compound 3h], in that order: 6.63% and 84.4%.
With `CC(=O)OCCCC(C)C1=C(C)CC2OC(=O)C3(CC(c4ccc([N+](=O)[O-])cc4)=NO3)C2C1=O` (centres unmarked) [Compound 4h], the “Cell Toxicity (%)” value in data set [1] amounted to 5.65%. In addition, the “Inhabitation Rate (%)” value in data set [2] came to 92.79%.
For `CC(=O)OCCCC(C)C1=C(C)CC2OC(=O)C3(CC(c4ccc(F)cc4)=NO3)C2C1=O` (centres unmarked) [Compound 4b], in that order: −8.44% and 32%.
The like results for `CC(=O)OCCCC(C)C1=C(C)CC2OC(=O)C3(CC(c4ccc(Br)cc4)=NO3)C2C1=O` (centres unmarked) [Compound 4d] were, in that order, −4.59% and 97.77%.
In the case of `CC(=O)OCCCC(C)C1=C(C)CC2OC(=O)C3(CC(c4ccncc4)=NO3)C2C1=O` (centres unmarked) [Compound 4i], the “Cell Toxicity (%)” value in data set [1] is given as 9.09%. Also, in data set [2], the “Inhabitation Rate (%)” value came to 83.53%.
For `CC(=O)OCCCC(C)C1=C(C)CC2OC(=O)C3(CC(c4ccccc4)=NO3)C2C1=O` (centres unmarked) [Compound 4a], in that order: 0.16% and 21.93%.
Turning to `CC(=O)OCCCC(C)C1=C(C)CC2OC(=O)C3(CC(c4ccc(C)cc4)=NO3)C2C1=O` (centres unmarked) [Compound 4f], the “Cell Toxicity (%)” value in data set [1] is −0.66%. The “Inhabitation Rate (%)” value in data set [2] is 28.77%.
On to `COc1ccc(C2=NOC3(C2)C(=O)OC2CC(C)=C(C(C)CCCOC(C)=O)C(=O)C23)cc1` (centres unmarked) [Compound 4g], for which, in data set [1], the “Cell Toxicity (%)” value was 5.81%. In addition, in data set [2], the “Inhabitation Rate (%)” value came out at 53.28%.
As for `CC(=O)OCCCC(C)C1=C(C)CC2OC(=O)C3(CC(c4ccc([N+](=O)[O-])cc4)=NO3)C2C1O` (centres unmarked) [Compound 2h], the “Cell Toxicity (%)” value in data set [1] worked out at 20.64%. The “Inhabitation Rate (%)” value in data set [2] was determined as 87.14%.
The like results for `CC(=O)OCCCC(C)C1=C(C)CC2OC(=O)C3(CC(c4ccccc4)=NO3)C2C1OC(C)=O` (centres unmarked) [Compound 3a] were, in that order, 5.98% and 79.15%.
The like results for `CC(=O)OCCCC(C)C1=C(C)CC2OC(=O)C3(CC(c4ccc(Br)cc4)=NO3)C2C1OC(C)=O` (centres unmarked) [Compound 3d] were, in that order, 9.58% and 89.94%.
`CC(=O)OCCCC(C)C1=C(C)CC2OC(=O)C3(CC(c4ccc(Cl)cc4)=NO3)C2C1OC(C)=O` (centres unmarked) [Compound 3c]: the “Cell Toxicity (%)” value in data set [1] is listed as −6.22%. For the same molecule, the “Inhabitation Rate (%)” value in data set [2] turned out to be 70.16%.
The like results for `CC(=O)OCCCC(C)C1=C(C)CC2OC(=O)C3(CC(c4ccc(C#N)cc4)=NO3)C2C1=O` (centres unmarked) [Compound 4e] were, in that order, 3.19% and 88.22%.
The like results for `CC(=O)OCCCC(C)C1=C(C)CC2OC(=O)C3(CC(c4ccc(Cl)cc4)=NO3)C2C1O` (centres unmarked) [Compound 2c] were, in that order, 1.88% and 67.43%.
In the case of `C=C1C(=O)O[C@@H]2CC(C)=C([C@@H](C)CCCOC(C)=O)[C@H](O)[C@H]12` [ABL, 1-O-acetylbritannilatone], the “Cell Toxicity (%)” value in data set [1] was determined as 1.15%. For the same molecule, the “Inhabitation Rate (%)” value in data set [2] is reported as 35.21%.
For `COc1ccc(C2=NOC3(C2)C(=O)OC2CC(C)=C(C(C)CCCOC(C)=O)C(O)C23)cc1` (centres unmarked) [Compound 2g], the “Cell Toxicity (%)” value in data set [1] came to 7.37%. In data set [2], the “Inhabitation Rate (%)” value worked out at 0.91%.
For `CC(=O)OCCCC(C)C1=C(C)CC2OC(=O)C3(CC(c4ccc(Br)cc4)=NO3)C2C1O` (centres unmarked) [Compound 2d], in that order: 1.06% and 50.4%.

Values taken from patent publication US11028102B2, “Methods of using 1-O-acetylbritannilatone spiro aryl isoxazoline compounds” (priority 2017, dated 2021).
